Data set [1] can be described thus: Molar enthalpy of transition or fusion. The following applies: Crystal; DSC.
The conditions of data set [2]: Crystal; DTA.

Results on 1 molecule are retold here after the NIST ThermoML archive (doi:10.1016/j.jct.2016.10.006).

SMILES strings stand for the structures. Numbers after ± are expanded uncertainties.

On to `Cn1cnc([N+](=O)[O-])c1Cl` [5-chloro-1-methyl-4-nitroimidazole], for which, in data set [1], the “Molar enthalpy of transition or fusion” value turned out to be 5.36 ± 0.222 kcal/mol. Further, the Normal melting temperature in data set [2] was 148.20 ± 1.1 °C.
